{
  "source": "paper PMC4506051",
  "about": "“Pharmacokinetic Profiles of Active Ingredients and Its Metabolites Derived from Rikkunshito, a Ghrelin Enhancer, in Healthy Japanese Volunteers: A Cross-Over, Randomized Study” (PLoS ONE, 2015)",
  "key": {"[1]": {"assay": "clinical", "conditions": "for AUC(0-t): AUC0-last; for Cmax: C max", "how_it_was_run": "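Plasma concentrations of ingredients were measured by LC–MS/MS or GC–MS in samples taken from pre-dose to 48 h. Dosing was a single oral rikkunshito dose (2.5, 5.0 or 7.5 g; three-arm randomized crossover) in fasted healthy Japanese volunteers aged 20–45.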"}, "[2]": {"assay": "Stability of ingredients in gastric pH solution (pH 1.2, 37°C)", "assay_type": "physicochemical", "method": "Rikkunshito gradually dissolved in acidic solution (pH 1.2) at 37°C, and the concentration of atractylodin after adding 0.25, 0.5, 1, and 2 h was measured by gas chromatography–mass spectrometry."}, "[3]": {"conditions": "cited from earlier work"}, "[4]": {"assay": "Method validation: stability in standard, stock and working solution"}, "[5]": {"conditions": "human, in vivo, po, rikkunshito 2.5 g single oral, n = 21, geometric mean (95% CI)"}, "[6]": {"conditions": "human, in vivo, po, rikkunshito 5.0 g single oral, n = 19, geometric mean (95% CI)"}, "[7]": {"conditions": "human, in vivo, po, rikkunshito 7.5 g single oral, n = 19, geometric mean (95% CI)"}},
  "note": "Read-outs that look alike come from different tables or passages of the source.",
  "data": [
    {"compound": "COc1ccc(-c2cc(=O)c3c(OC)c(OC)c(OC)c(OC)c3o2)cc1OC", "note": "[Nobiletin]", "values": [
      {"measurement": "t max values", "setting": "[1]; human, in vivo", "result": 15, "unit": "min-1 h"},
      {"measurement": "Stability in gastric pH solution, Quantitative value", "setting": "[2]; 0.5 h, pH 1.2", "result": 18.1, "unit": "ng/mL"},
      {"measurement": "Stability in gastric pH solution, Quantitative value", "setting": "[2]; 1 h, pH 1.2", "result": 21.5, "unit": "ng/mL"},
      {"measurement": "Stability in gastric pH solution, Quantitative value", "setting": "[2]; 2 h, pH 1.2", "result": 19.6, "unit": "ng/mL"},
      {"measurement": "Maximum plasma concentration in the preliminary pharmacokinetics study", "setting": "[3]; in vivo", "result": "0.0626 ± 0.0436", "unit": "ng/mL"},
      {"measurement": "Working solution stability, RR", "setting": "[4]; 0.04 ng/mL, refrigerator (1°C to 8°C) for 53 days", "result": 95.0, "unit": "%"},
      {"measurement": "Working solution stability, RR", "setting": "[4]; 0.04 ng/mL, refrigerator (1°C to 8°C) for 128 days", "result": 89.0, "unit": "%"},
      {"measurement": "Working solution stability, RR", "setting": "[4]; 4 ng/mL, refrigerator (1°C to 8°C) for 53 days", "result": 102.6, "unit": "%"},
      {"measurement": "Working solution stability, RR", "setting": "[4]; 4 ng/mL, refrigerator (1°C to 8°C) for 128 days", "result": 109.6, "unit": "%"},
      {"measurement": "Stock solution stability, RR", "setting": "[4]; 0.1 mg/mL, refrigerator (1°C to 8°C) for 54 days", "result": "54 days: 99.8%"},
      {"measurement": "Stock solution stability, RR", "setting": "[4]; 0.1 mg/mL, refrigerator (1°C to 8°C) for 129 days", "result": "129 days: 89.1%"}
    ]},
    {"compound": "C=C(CC[C@@H](C(=O)O)[C@H]1[C@H](O)C[C@@]2(C)C3=C(CC[C@]12C)[C@@]1(C)CC[C@H](OC(C)=O)C(C)(C)[C@@H]1CC3)C(C)C", "note": "[Pachymic acid]", "values": [
      {"measurement": "Plasma concentration just before the administration", "setting": "[1]; all subjects, quantitative trial", "result": "BQL"},
      {"measurement": "AUC(0-t)", "setting": "[1]; [5]", "result": 0.277, "unit": "ng·h/mL"},
      {"measurement": "AUC(0-t)", "setting": "[1]; [6]", "result": 0.716, "unit": "ng·h/mL"},
      {"measurement": "AUC(0-t)", "setting": "[1]; [7]", "result": 1.21, "unit": "ng·h/mL"},
      {"measurement": "Cmax", "setting": "[1]; [5]", "result": 0.0363, "unit": "ng/mL"},
      {"measurement": "Cmax", "setting": "[1]; [6]", "result": 0.0612, "unit": "ng/mL"},
      {"measurement": "Cmax", "setting": "[1]; [7]", "result": 0.091, "unit": "ng/mL"},
      {"measurement": "Tmax", "setting": "[1]; human, in vivo, po, Median t max (range), rikkunshito 2.5 g single oral, n = 21, median (minimum–maximum)", "result": 6, "unit": "h"},
      {"measurement": "Tmax", "setting": "[1]; human, in vivo, po, Median t max (range), rikkunshito 5.0 g single oral, n = 19, median (minimum–maximum)", "result": 6, "unit": "h"},
      {"measurement": "Tmax", "setting": "[1]; human, in vivo, po, Median t max (range), rikkunshito 7.5 g single oral, n = 19, median (minimum–maximum)", "result": "> 3", "unit": "h"},
      {"measurement": "half-life", "setting": "[1]; human, in vivo, po, t 1/2, rikkunshito 5.0 g single oral, n = 19, geometric mean (95% CI)", "result": 16.2, "unit": "h"},
      {"measurement": "Tmax", "setting": "[1]; human, in vivo, t max, after rikkunshito administration, dose not given", "result": 6, "unit": "h"},
      {"measurement": "t 1/2", "setting": "[1]; rikkunshito 7.5 g single oral, n = 19, geometric mean (95% CI)", "result": "20.5 (14.4–29.2) h"},
      {"measurement": "t 1/2", "setting": "[1]; rikkunshito 7.5 g single oral, n = 19, geometric mean (95% CI), listed as pachymic acid", "result": "exceeding 10 h"},
      {"measurement": "Median t max (range)", "setting": "[1]; rikkunshito 7.5 g single oral, n = 19, median (minimum–maximum)", "result": "6.00 (2.00–11.5) h"},
      {"measurement": "Stability in gastric pH solution, Quantitative value", "setting": "[2]; rikkunshito in acidic solution (pH 1.2) at 37°C, 0.5 h", "result": 40.2, "unit": "ng/mL"},
      {"measurement": "Stability in gastric pH solution, Quantitative value", "setting": "[2]; rikkunshito in acidic solution (pH 1.2) at 37°C, 1 h", "result": 46.5, "unit": "ng/mL"},
      {"measurement": "Stability in gastric pH solution, Quantitative value", "setting": "[2]; rikkunshito in acidic solution (pH 1.2) at 37°C, 2 h", "result": 28.3, "unit": "ng/mL"},
      {"measurement": "Maximum plasma concentration in the preliminary pharmacokinetics study", "setting": "[3]; 7.5 g dosage", "result": "0.228 ± 0.116", "unit": "ng/mL"},
      {"measurement": "Working solution stability, RR", "setting": "[4]; refrigerator 53 days, higher concentration (pachymic acid 10, heptamethoxyflavone 4, naringenin 50 ng/mL)", "result": 101.1, "unit": "%"},
      {"measurement": "Working solution stability, RR", "setting": "[4]; refrigerator 53 days, lower concentration (pachymic acid 0.1, heptamethoxyflavone 0.04, naringenin 0.5 ng/mL)", "result": 109.1, "unit": "%"},
      {"measurement": "Working solution stability, RR", "setting": "[4]; refrigerator 128 days, higher concentration (10 / 4 / 50 ng/mL)", "result": 113.2, "unit": "%"},
      {"measurement": "Working solution stability, RR", "setting": "[4]; refrigerator 128 days, lower concentration (0.1 / 0.04 / 0.5 ng/mL)", "result": 102.1, "unit": "%"},
      {"measurement": "Stock solution stability, RR", "setting": "[4]; refrigerator (1°C to 8°C) 54 days, 0.1 mg/mL (naringenin 0.5 mg/mL)", "result": "54 days: 101.7%"},
      {"measurement": "Stock solution stability, RR", "setting": "[4]; refrigerator (1°C to 8°C) 129 days, 0.1 mg/mL (naringenin 0.5 mg/mL)", "result": "129 days: 110.1%"}
    ]}
  ]
}
